Source: ChEMBL document CHEMBL3244027, “Syntheses, analgetic activity, and physical dependence capacity of 5-phenyl-6,7-benzomorphan derivatives” (J Med Chem, 1979)
Calls of active or inactive are those of the source. The rule behind the calls is not given here.

Key:
[1] = organism: Mus musculus; experiment: Analgetic activity in naloxone challenged mouse assessed as frequency pretreated for 2 day by mouse jumping test; type: functional, organism-based
[2] = system: Mus musculus; experiment: Analgetic activity against CF-1 mouse assessed as increase in reaction time at 20 mg/kg, sc by heat stimulus induced tail flick response assay; type: functional, organism-based; parameters: dose 20 mg/kg
[3] = organism: Mus musculus; experiment: Analgetic activity in nalorphine challenged mouse assessed as frequency pretreated for 2 day by mouse jumping test; type: functional, organism-based
[4] = system: Mus musculus; experiment: Analgetic activity against CF-1 mouse assessed as increase in reaction time at 320 mg/kg, sc by heat stimulus induced tail flick response assay; type: functional, organism-based; parameters: dose 320 mg/kg
[5] = system: Mus musculus; experiment: Analgetic activity against CF-1 mouse assessed as increase in reaction time at 320 mg/kg, po by heat stimulus induced tail flick response assay; type: functional, organism-based; parameters: dose 320 mg/kg
[6] = system: Mus musculus; experiment: Analgetic activity in sc dosed CF1S mouse assessed as writhing by phenylquinone writhing test; type: functional; details: Mus musculus, CF1S, sc; read-out: ED50
[7] = system: Mus musculus; experiment: Analgetic activity against CF-1 mouse assessed as increase in reaction time at 80 mg/kg, sc by heat stimulus induced tail flick response assay; type: functional, organism-based; parameters: dose 80 mg/kg
[8] = system: Mus musculus; experiment: Analgetic activity against CF-1 mouse assessed as increase in reaction time at 160 mg/kg, po by heat stimulus induced tail flick response assay; type: functional, organism-based; parameters: dose 160 mg/kg
[9] = system: Mus musculus; experiment: Analgetic activity against CF-1 mouse assessed as increase in reaction time at 40 mg/kg, sc by heat stimulus induced tail flick response assay; type: functional, organism-based; parameters: dose 40 mg/kg
[10] = system: Mus musculus; experiment: Analgetic activity against CF-1 mouse assessed as increase in reaction time at 5 mg/kg, sc by heat stimulus induced tail flick response assay; type: functional, organism-based; parameters: dose 5 mg/kg
[11] = system: Mus musculus; experiment: Analgetic activity against CF-1 mouse assessed as increase in reaction time at 160 mg/kg, sc by heat stimulus induced tail flick response assay; type: functional, organism-based; parameters: dose 160 mg/kg
[12] = system: Mus musculus; experiment: Analgetic activity against CF-1 mouse assessed as increase in reaction time at 80 mg/kg, po by heat stimulus induced tail flick response assay; type: functional, organism-based; parameters: dose 80 mg/kg
[13] = system: Mus musculus; experiment: Analgetic activity in po dosed CF1S mouse assessed as writhing by phenylquinone writhing test; type: functional; details: Mus musculus, CF1S, po; read-out: ED50

## CC1C2Cc3ccc(O)cc3C1(c1ccccc1)CCN2CC1CCC1 (stereo in doubt; 219)
[1]
  Activity: inactive

## CN1CCC2(c3ccccc3)CC1Cc1ccccc12 (stereo in doubt; 36)
[2]
  Activity: Active
[3]
  Activity: inactive

## CN1CCC2(c3ccccc3)CC1Cc1cc(O)c(O)cc12 (racemic)
[4]
  Activity: inactive

## CC1C2Cc3ccc(O)cc3C1(c1ccccc1)CCN2CCC(C#N)(c1ccccc1)c1ccccc1 (stereo in doubt; 189)
[5]
  Activity: inactive
[3]
  Activity: inactive

## Oc1ccc2c(c1)C1(c3ccccc3)CCN(C/C=C/Cl)C(C2)C1 (racemic)
[6]
  ED50: > 100 mg/kg
[1]
  Activity: inactive

## COc1ccc(CC2C=C(c3ccccc3)CCN2C)cc1 (stereo not drawn)
[1]
  Activity: inactive
[7]
  Activity: Active

## CC1C2Cc3ccc(O)cc3C1(c1ccccc1)CCN2CCC(=O)c1ccccc1 (stereo not drawn)
[8]
  Activity: Active

## C=C(Br)CN1CCC2(c3ccccc3)c3cc(O)ccc3CC1C2C.Cl (stereo not drawn)
[9]
  Activity: inactive
[6]
  ED50: > 100 mg/kg
[1]
  Activity: inactive

## CN(C)CCCN1CCC2(c3ccccc3)CC1Cc1ccc(O)cc12 (racemic)
[4]
  Activity: inactive

## CCCCCN1CCC2(c3ccccc3)c3cc(O)ccc3CC1C2C (racemic)
[10]
  Activity: Active

## C[C@@H]1C2Cc3ccc(O)cc3C1(c1ccccc1)CCN2C (mixture of isomers)
[11]
  Activity: Active

## CC1C2Cc3ccc(O)cc3C1(c1ccccc1)CCN2Cc1ccco1 (stereo not drawn)
[4]
  Activity: inactive

## c1ccc(CCN2CCC3(c4ccccc4)CC2Cc2ccccc23)cc1 (racemic)
[8]
  Activity: Active

## Cl.Oc1ccc2c(c1)C1(c3ccc(Cl)cc3)CCN(CCc3ccccc3)C(C2)C1 (racemic)
[6]
  ED50: > 100 mg/kg
[12]
  Activity: inactive

## O=[N+]([O-])c1ccc(CCN2CCC3(c4ccccc4)CC2Cc2ccc(O)cc23)cc1 (racemic)
[4]
  Activity: inactive

## CC1=C(c2ccccc2)CCN(C)C1Cc1ccc(O)cc1 (stereo not drawn)
[6]
  ED50: 5 mg/kg
[1]
  Activity: inactive
[11]
  Activity: Active

## COc1ccc(CC2C=C(c3ccccc3)CCN2C)cc1OC (stereo not drawn)
[9]
  Activity: Active

## C/C(Cl)=C/CN1CCC2(c3ccccc3)c3cc(O)ccc3CC1C2C (racemic)
[6]
  ED50: > 100 mg/kg
[11]
  Activity: inactive

## CC1C2Cc3ccc(OC(=O)c4ccccc4F)cc3C1(c1ccccc1)CCN2C (stereo not drawn)
[6]
  ED50: 0.5 mg/kg
[3]
  Activity: Active

## CN1CCC2(c3ccccc3)CC1Cc1ccccc12 (stereo in doubt; 37)
[4]
  Activity: inactive

## OCCN1CCC2(c3ccccc3)CC1Cc1ccc(O)cc12 (racemic)
[6]
  ED50: > 100 mg/kg
[4]
  Activity: inactive

## Oc1ccc2c(c1)C1(c3ccccc3)CCN(CCc3ccccc3)C(C2)C1 (stereo not drawn)
[12]
  Activity: Active
[1]
  Activity: Active

## C[C@@H]1C2Cc3ccc(O)cc3C1(c1ccccc1)CCN2CCC(C)(C)O (stereo partly drawn)
[6]
  ED50: 78 mg/kg
[4]
  Activity: inactive

## CC1C2Cc3ccc(O)cc3C1(c1ccccc1)CCN2CCO (stereo not drawn)
[7]
  Activity: inactive

## CN1CCC2(c3ccccc3)CC1Cc1ccc(O)cc12 (stereo in doubt; 42)
[7]
  Activity: inactive

## COc1cc(CC2C=C(c3ccccc3)CCN2C)cc(OC)c1OC (stereo not drawn)
[12]
  Activity: Active

## CCC1C2Cc3ccc(O)cc3C1(c1ccccc1)CCN2C (racemic)
[2]
  Activity: Active

## CCOC(=O)C(C)N1CCC2(c3ccccc3)c3cc(O)ccc3CC1C2C (stereo not drawn)
[6]
  ED50: > 100 mg/kg
[4]
  Activity: inactive

## Oc1ccc2c(c1)C1(c3ccccc3)CCN(CCc3ccccc3)C(C2)C1 (racemic)
[9]
  Activity: Active

## c1ccc(C23CCNC(Cc4ccccc42)C3)cc1 (stereo not drawn)
[11]
  Activity: Active

## CN1CCC(c2ccccc2)=CC1Cc1ccc(O)cc1 (stereo not drawn)
[2]
  Activity: Active
[6]
  ED50: 1.5 mg/kg
[13]
  ED50: 27 mg/kg
[1]
  Activity: inactive

## CCOC(=O)CN1CCC2(c3ccccc3)c3cc(O)ccc3CC1C2C (stereo not drawn)
[4]
  Activity: inactive

## CC(C)CCN1CCC2(c3ccccc3)c3cc(O)ccc3CC1[C@H]2C (stereo partly drawn)
[8]
  Activity: Active

## CC(C)=CCN1CCC2(c3ccccc3)c3cc(O)ccc3CC1C2C (stereo in doubt; 207)
[1]
  Activity: inactive

## CC(=O)Oc1ccc2c(c1)C1(c3ccccc3)CCN(C)C(C2)C1 (racemic)
[6]
  ED50: 9.4 mg/kg
[1]
  Activity: inactive
[7]
  Activity: inactive

## CCOC(=O)CCN1CCC2(c3ccccc3)CC1Cc1ccc(O)cc12 (racemic)
[6]
  ED50: 78 mg/kg
[13]
  ED50: > 100 mg/kg
[4]
  Activity: inactive
